Usually melting point stands for the temperature, or range, at which the solid turns liquid. The term EC50 denotes the concentration giving half of the maximal effect. Read a high EC50 as weaker potency.

Molecules are shown by their SMILES.

One data set deals with T1, Rev-Erb alpha (Homo sapiens, UniProt P20393).
T1 sequence (P20393 284-614 limits assumed): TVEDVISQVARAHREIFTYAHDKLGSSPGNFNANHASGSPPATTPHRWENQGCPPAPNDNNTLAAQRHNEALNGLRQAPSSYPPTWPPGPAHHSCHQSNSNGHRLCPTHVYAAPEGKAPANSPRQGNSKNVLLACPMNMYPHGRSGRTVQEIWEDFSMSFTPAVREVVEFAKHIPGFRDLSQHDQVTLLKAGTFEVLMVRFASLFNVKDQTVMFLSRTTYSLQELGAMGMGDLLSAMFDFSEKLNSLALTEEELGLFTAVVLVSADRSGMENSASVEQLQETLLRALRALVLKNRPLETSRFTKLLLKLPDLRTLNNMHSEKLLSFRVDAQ
The data set can be described thus: M2H (mammalian two-hybrid) cellular activation assay of Rev-Erb alpha. Format: cell-based. The following applies: M2H assay, HEK293 cells; for EC50: Gal4-Rev-Erb alpha / VP16-NCoR, luciferase reporter; for Emax: relative to DMSO, at the tested dose, read-out: TOP activation. A digest of the protocol: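 Six-point dose-response, 18 h, 37 °C, serum-free, in HEK293 cells carrying a Gal4-RE luciferase reporter with Gal4-Rev-Erb alpha or beta plus VP16-NCoR (corepressor interaction readout). EC50 and TOP activation (%) derived from luminescence across four experiments.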

Regarding `FC(F)(F)c1ccc(-c2cccnc2)c(Oc2ccc3nnc(C(F)(F)F)n3n2)c1` [Cpd.4-126, 3-(trifluoromethyl)-6-(2-(pyridin-3-yl)-5-(trifluoromethyl)phenoxy)-[1,2,4]triazolo[4,3-b]pyridazine], the melting point lay within 69 to 70 °C. On Rev-Erb alpha, this compound yielded an EC50 of 1000 to 6000 nM.
For `COc1nccc(C)c1-c1ccc(C(F)(F)F)cc1Oc1ccc2nnc(Cl)n2n1` [Cpd.4-130, 3-chloro-6-((2-(2-methoxy-4-methylpyridin-3-yl))-5-(trifluoromethyl)phenoxy)-[1,2,4]triazolo[4,3-b]pyridazine], in that order: 129 to 132 °C and 1000 to 6000 nM.
Take `COc1ncc(F)cc1-c1ccc(C(F)(F)F)cc1Oc1ccc2nnc(Cl)n2n1` [Cpd.4-131, 3-chloro-6-((2-(2-methoxy-5-fluoropyridin-3-yl))-5-(trifluoromethyl)phenoxy)-[1,2,4]triazolo[4,3-b]pyridazine]: the melting point fell in the range of 60 to 68 °C. Moreover, the EC50 on Rev-Erb alpha lay within 100 to 1000 nM.
In the case of `Cc1cccc(-c2ccccc2Oc2ccc3nnc(Cl)n3n2)c1` [Cpd.4-132, 3-chloro-6-(3′-methylbiphenyl-2-yloxy)-[1,2,4]triazolo[4,3-b]pyridazine], the melting point was found to be 51 °C. The compound further gave an EC50 at Rev-Erb alpha of 100 to 1000 nM.
For the compound `Cc1cccc(-c2cc(F)ccc2Oc2ccc3nnc(Cl)n3n2)c1` [Cpd.4-135, 3-chloro-6-(5-fluoro-3′-methylbiphenyl-2-yloxy)-[1,2,4]triazolo[4,3-b]pyridazine], the melting point was in the range of 94.5 to 95.1 °C. Moreover, on Rev-Erb alpha, the EC50 lay in the range of 100 to 1000 nM.
The corresponding values for `COc1cccc(-c2ccc(C(F)(F)F)cc2Oc2ccc3nnc(C(F)(F)F)n3n2)c1` [Cpd.4-137, 3-(trifluoromethyl)-6-(3′-methoxy-4-(trifluoromethyl)biphenyl-2-yloxy)-[1,2,4]triazolo[4,3-b]pyridazine] are 102.5 °C and 100 to 1000 nM.
For `Oc1cccc(-c2ccc(C(F)(F)F)cc2Oc2ccc3nnc(C(F)(F)F)n3n2)c1` [Cpd.4-138, 3-(trifluoromethyl)-6-(3′-hydroxy-4-(trifluoromethyl)biphenyl-2-yloxy)-[1,2,4]triazolo[4,3-b]pyridazine], in that order: 195 °C and 1000 to 6000 nM.
The corresponding values for `CCOc1ccc(Oc2ccc3nnc(Cl)n3n2)c(-c2ccccc2)c1` [Cpd.4-139, 3-chloro-6-(5-ethoxybiphenyl-2-yloxy)-[1,2,4]triazolo[4,3-b]pyridazine] are 89.7 to 90.8 °C and 100 to 1000 nM.
Compound `COC(=O)c1cccc(-c2ccccc2Oc2ccc3nnc(Cl)n3n2)c1` [Cpd.4-140, 3-Chloro-6-(3′-(methyloxycarbonyl)biphenyl-2-yloxy)-[1,2,4]triazolo[4,3-b]pyridazine] yielded a melting point of 236 to 246 °C. In addition, on Rev-Erb alpha, the EC50 is > 6000 nM and the Emax is > 130%.
In turn, `Fc1ccc(Oc2ccc3nnc(C(F)(F)F)n3n2)c(-c2ccccc2)c1` [Cpd.4-141, 3-(trifluoromethyl)-6-(5-fluorobiphenyl-2-yloxy)-[1,2,4]triazolo[4,3-b]pyridazine] registered a melting point of 85.3 to 87.7 °C. Besides, at Rev-Erb alpha, the EC50 lay in the range of 1000 to 6000 nM.
The corresponding values for `COc1ccc(C(=O)c2ccccc2)c(Oc2ccc3nnc(Cl)n3n2)c1` [Cpd.4-144, 3-chloro-6-(2-benzoyl-5-methoxy-phenoxy)-[1,2,4]triazolo[4,3-b]pyridazine] are 175 to 176 °C and 100 to 1000 nM.
In turn, `O=C(c1ccccc1)c1cc(Br)ccc1Oc1ccc2nnc(Cl)n2n1` [Cpd.4-145, 3-chloro-6-(4-bromo-2-benzoyl-phenoxy)-[1,2,4]triazolo[4,3-b]pyridazine] had a melting point of 135 to 137 °C. The compound also showed an EC50 on Rev-Erb alpha of 1000 to 6000 nM.
For `Clc1ccc(Oc2ccc3nnc(Cl)n3n2)c(Cc2ccccc2)c1` [Cpd.4-146, 6-(2-benzyl-4-chloro-phenoxy)-3-chloro-[1,2,4]triazolo[4,3-b]pyridazine], in that order: 161 to 162 °C and 100 to 1000 nM.
On to `Fc1ccc(Oc2ccc3nnc(Cl)n3n2)c(-c2cccc(C(F)(F)F)c2)c1` [Cpd.4-148, 3-chloro-6-(5-fluoro-3′-(trifluoromethyl)biphenyl-2-yloxy)-[1,2,4]triazolo[4,3-b]pyridazine], for which the melting point was 94.5 to 96.1 °C. Moreover, the EC50 on Rev-Erb alpha lay within 1000 to 6000 nM.
For `COc1cccc(-c2cc(F)ccc2Oc2ccc3nnc(C(F)(F)F)n3n2)c1` [Cpd.4-149, 3-(trifluoromethyl)-6-(5-fluoro-3′-methoxybiphenyl-2-yloxy)-[1,2,4]triazolo[4,3-b]pyridazine], in that order: 73.7 to 76.9 °C and 1000 to 6000 nM.
The compound `COc1cccc(-c2cc(F)c(F)cc2Oc2ccc3nnc(C(F)(F)F)n3n2)c1` [Cpd.4-150, 3-(trifluoromethyl)-6-(4,5-difluoro-3′-methoxybiphenyl-2-yloxy)-[1,2,4]triazolo[4,3-b]pyridazine] gave a melting point of 52 to 55 °C. This compound also gave an EC50 at Rev-Erb alpha of 1000 to 6000 nM.
In turn, `Oc1cccc(-c2cc(F)c(F)cc2Oc2ccc3nnc(C(F)(F)F)n3n2)c1` [Cpd.4-151, 3-(trifluoromethyl)-6-(4,5-difluoro-3′-hydroxybiphenyl-2-yloxy)-[1,2,4]triazolo[4,3-b]pyridazine] displayed a melting point of 193 to 195 °C. On Rev-Erb alpha, this compound had an EC50 of 1000 to 6000 nM.
`COc1cccc(-c2cc(F)c(F)cc2Oc2ccc3nnc(Cl)n3n2)c1` [Cpd.4-152, 3-chloro-6-(4,5-difluoro-3′-methoxybiphenyl-2-yloxy)-[1,2,4]triazolo[4,3-b]pyridazine] gave a melting point of 102 °C. This compound also had an EC50 at Rev-Erb alpha of 1000 to 6000 nM.
The corresponding values for `N#Cc1ccc(Oc2ccc3nnc(Cl)n3n2)c(-c2ccccc2)c1` [Cpd.4-154, 3-chloro-6-(5-cyanobiphenyl-2-yloxy)-[1,2,4]triazolo[4,3-b]pyridazine] are 208 to 209 °C and 1000 to 6000 nM.
`Clc1nnc2ccc(Oc3ccc(CN4CCCCC4)cc3-c3ccccc3)nn12` [Cpd.4-156, 3-chloro-6-(5-piperidin-1-ylmethylbiphenyl-2-yloxy)-[1,2,4]triazolo[4,3-b]pyridazine] had a melting point of 70 to 70.4 °C. On Rev-Erb alpha, the EC50 is > 6000 nM and the Emax was > 130%.
Compound `Clc1nnc2ccc(Oc3ccc(CNC4CC4)cc3-c3ccccc3)nn12` [Cpd.4-161, 3-chloro-6-(5-(cyclopropylaminomethyl)biphenyl-2-yloxy)-[1,2,4]triazolo[4,3-b]pyridazine] showed a melting point of 62.2 to 64.9 °C. The same compound had an EC50 at Rev-Erb alpha of 1000 to 6000 nM.
The corresponding values for `Clc1nnc2ccc(Oc3ccc(CNCC4CCCCC4)cc3-c3ccccc3)nn12` [Cpd.4-162, 3-chloro-6-(5-((cyclohexylmethyl)aminomethyl)biphenyl-2-yloxy)-[1,2,4]triazolo[4,3-b]pyridazine] are 53.4 to 55.7 °C and 1000 to 6000 nM.
For `CC(C)N(Cc1ccc(Oc2ccc3nnc(Cl)n3n2)c(-c2ccccc2)c1)C(C)C` [Cpd.4-166, 3-chloro-6-(5-(diisopropylaminomethyl)biphenyl-2-yloxy)-[1,2,4]triazolo[4,3-b]pyridazine], in that order: 59.1 °C and 1000 to 6000 nM.
The corresponding values for `CC(C)CCNc1ccc(-c2ccccc2)c(Oc2ccc3nnc(Cl)n3n2)c1` [Cpd.4-175, 3-chloro-6-(4-((3-methylbutyl)amino)biphenyl-2-yloxy)-[1,2,4]triazolo[4,3-b]pyridazine] are 145 to 150 °C and 100 to 1000 nM.
`Clc1nnc2ccc(Oc3cc(CN4CCCCC4)ccc3-c3ccccc3)nn12` [Cpd.4-183, 3-chloro-6-(4-piperidin-1-ylmethylbiphenyl-2-yloxy)-[1,2,4]triazolo[4,3-b]pyridazine] showed a melting point of 163 to 164 °C. Further, the EC50 at Rev-Erb alpha is 1000 to 6000 nM.
`CCN(CC)Cc1ccc(-c2ccccc2)c(Oc2ccc3nnc(Cl)n3n2)c1` [Cpd.4-184, 3-chloro-6-(4-diethylaminomethylbiphenyl-2-yloxy)-[1,2,4]triazolo[4,3-b]pyridazine] displayed a melting point of 110 to 112 °C. The compound further returned an EC50 at Rev-Erb alpha of 1000 to 6000 nM.
`Clc1nnc2ccc(Oc3cc(NCCC4CCCCC4)ccc3-c3ccccc3)nn12` [Cpd.4-185, 3-chloro-6-(4-((cyclohexylethyl)amino)biphenyl-2-yloxy)-[1,2,4]triazolo[4,3-b]pyridazine] displayed a melting point of 154 to 159 °C. This compound returned an EC50 on Rev-Erb alpha of 100 to 1000 nM.
For `O=[N+]([O-])c1cccc(-c2cc(F)ccc2Oc2ccc3nnc(Cl)n3n2)c1` [Cpd.4-187, 3-chloro-6-(5-fluoro-3′-nitrobiphenyl-2-yloxy)-[1,2,4]triazolo[4,3-b]pyridazine], in that order: 190.5 °C and 1000 to 6000 nM.
With `Fc1ccc(-c2cc(F)ccc2Oc2ccc3nnc(Cl)n3n2)c(F)c1` [Cpd.4-188, 3-chloro-6-(5,2′,4′-trifluorobiphenyl-2-yloxy)-[1,2,4]triazolo[4,3-b]pyridazine], the melting point stood at 143.6 °C. Besides, the 50% effective concentration (EC50) at Rev-Erb alpha was 100 to 1000 nM.
In turn, `CC(C)Nc1ccc(-c2ccccc2)c(Oc2ccc3nnc(Cl)n3n2)c1` [Cpd.4-189, 3-chloro-6-(4-isopropylamino-biphenyl-2-yloxy)-[1,2,4]triazolo[4,3-b]pyridazine] yielded a melting point of 170 to 175 °C. Moreover, the EC50 at Rev-Erb alpha was < 100 nM.

The values are drawn from US9586963B2 (GENFIT, priority 2011, dated 2017).
